Reference: patent publication US20230158016A1, “DELTA OPIOID RECEPTOR ANTAGONISTS REPROGRAM IMMUNOSUPPRESSIVE MICROENVIRONMENT TO BOOST IMMUNOTHERAPY” (H LEE MOFFITT CANCER CENTER AND RESEARCH INSTITUTE, INC., priority 2020, published 2023)
Where a name gives a salt, the structure may show the parent alone.

Test system: Bone marrow precursors
Assay: Development of MDSC from bone marrow precursors cultured in GM-CSF and G-CSF with DOR antagonists
Format: cell-based, mice
Settings: bone marrow precursors cultured 96 hours in GM-CSF and G-CSF (20 ng/ml each), increasing concentrations of antagonist
Procedure: Next the effect of DOR antagonist on M-MDSC was investigated. Bone marrow precursors were isolated and cultured for 96 hours in GM-CSF and G-CSF (20 ng/ml each) in the presence of increasing concentrations of the DOR antagonists Naltriben mesylate (NTB) or Naltrindole hydrochloride (NTD). Then, we evaluated cell viability by flow cytometry (using DAPI). […] Additionally, the number of M-MDSC (CD11b^+Ly6G^negLy6C^high) and PMN-MDSC (CD11b^+Ly6G^+Ly6C^low) was calculated.
The conjugated antibodies and probes used for flow cytometry are listed in the Key Resources Table. For surface staining, cells were labelled with the appropriate antibodies in the presence of Fc blocker. For intracellular staining, surface-labeled cells were fixed with Cytofix/Cytoperm™ Solution (BD Biosciences), washed in Perm/Wash™ 1×solution, and labelled with intracellular antibodies. Cells were then washed in Perm/Wash™ 1×and PBS. Live vs. dead cell discrimination was performed prior to antibody labeling by Zombie Fixable Viability dye (Biolegend). Ex vivo intracellular staining for IL-12 and TNFα was performed on isolated cells after stimulation for 6 hours with LPS (1 μg/ml, Sigma Aldrich) in the presence of Golgi stop (0.8 μl/ml, BD Biosciences). For IFNγ staining, cells were incubated for 5 hours with phorbol myristate acetate (PMA, 750 ng/mL, Sigma Aldrich) and ionomycin (50 μg/mL, Sigma-Aldrich) in the presence and Golgi stop (0.8 μl/ml). For ER-tracker and Mitotracker staining, cells were probed with 100 nM of ER tracker green or 200 nM of Mitotracker green (Invitrogen) and then stained for surface markers. For Mitochondrial membrane potential, cells were stained with JC-1 flow cytometry assay kit (Cayman chemicals) followed by surface markers staining. ROS were detected by DCFDA (10 μM) or Dihydroethidium (DHE, 10 μM). Data acquisition was performed in a CytoFLEX II (Beckman Coulter) or LSRII (BD Biosciences). All analysis was performed using FlowJo version 11 software.

Compound: Oc1ccc2c3c1O[C@H]1c4[nH]c5ccccc5c4C[C@@]4(O)[C@@H](C2)N(CC2CC2)CC[C@]314 [NTD, Naltrindole hydrochloride]
- absolute number of generated MDSC (CD11b+Gr1+): steady decline of MDSC as concentrations increased
- cell viability by flow cytometry (using DAPI): strong correlation increasing concentration of either NTD or NTB and cell death
- number of M-MDSC (CD11b+Ly6GnegLy6Chigh): the more significant losses were observed in the M-MDSC subset
- number of PMN-MDSC (CD11b+Ly6G+Ly6Clow): declined in number as the concentration of NTD or NTB increased

Compound: Naltriben mesylate [NTB]
- absolute number of generated MDSC (CD11b+Gr1+): steady decline of MDSC as concentrations increased
- cell viability by flow cytometry (using DAPI): strong correlation increasing concentration of either NTD or NTB and cell death
- number of M-MDSC (CD11b+Ly6GnegLy6Chigh): the more significant losses were observed in the M-MDSC subset
- number of PMN-MDSC (CD11b+Ly6G+Ly6Clow): declined in number as the concentration of NTD or NTB increased
